Data as given in ChEMBL document CHEMBL1201862, “PubChem BioAssay data set” (2004).
The source made the active and inactive calls.

Key:
Ion channel NompC = Ion channel NompC (Danio rerio, UniProt Q7T1G6); assay: Fluorescence counterscreen assay for TRPML3 agonists: dose response cell-based high-throughput screening assay to identify agonists of the transient receptor potential channel N1 (TRPN1). [Related pubchem assays: 1526, 1424, 1448 ]; type: functional
[1] = biological target: T1, Corticotropin-releasing factor receptor 2/Corticotropin-releasing factor-binding protein (Homo sapiens, UniProt P24387+Q13324); assay: activators of CRF receptor 2 with binding protein – uHTS hits, confirmation (AID 602473); type: functional; details: read-out: EC50_Mean
T1 sequence (Q13324 whole entry): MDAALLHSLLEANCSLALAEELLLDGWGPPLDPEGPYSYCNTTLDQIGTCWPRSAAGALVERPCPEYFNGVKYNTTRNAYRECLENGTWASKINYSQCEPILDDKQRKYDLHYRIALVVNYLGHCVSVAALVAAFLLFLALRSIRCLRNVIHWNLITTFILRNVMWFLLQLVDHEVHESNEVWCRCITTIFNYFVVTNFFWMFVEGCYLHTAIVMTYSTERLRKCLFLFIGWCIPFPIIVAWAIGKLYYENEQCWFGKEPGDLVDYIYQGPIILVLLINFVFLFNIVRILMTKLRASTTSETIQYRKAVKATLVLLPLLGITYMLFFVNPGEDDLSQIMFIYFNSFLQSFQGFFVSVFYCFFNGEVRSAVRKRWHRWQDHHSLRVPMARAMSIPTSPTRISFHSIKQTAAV
T1 sequence (P24387 whole entry): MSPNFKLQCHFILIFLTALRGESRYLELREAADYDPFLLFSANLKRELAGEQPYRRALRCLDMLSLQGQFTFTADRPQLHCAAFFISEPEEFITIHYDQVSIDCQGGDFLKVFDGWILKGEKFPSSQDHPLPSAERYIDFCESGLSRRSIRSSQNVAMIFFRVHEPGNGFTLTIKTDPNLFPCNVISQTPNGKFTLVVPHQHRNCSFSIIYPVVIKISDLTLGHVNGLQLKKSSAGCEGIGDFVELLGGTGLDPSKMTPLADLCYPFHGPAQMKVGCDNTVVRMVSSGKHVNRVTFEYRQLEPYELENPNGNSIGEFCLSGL

Mucolipin-3 = Mucolipin-3 (Homo sapiens, UniProt Q8TDD5); assay: Dose response cell-based high-throughput screening assay for agonists of the transient receptor potential channel ML3 (TRPML3). [Related pubchem assays: 1526, 1424, 1448 ]; type: functional
Chain of Mucolipin-3 (Q8TDD5 whole entry, the tested form may be a part): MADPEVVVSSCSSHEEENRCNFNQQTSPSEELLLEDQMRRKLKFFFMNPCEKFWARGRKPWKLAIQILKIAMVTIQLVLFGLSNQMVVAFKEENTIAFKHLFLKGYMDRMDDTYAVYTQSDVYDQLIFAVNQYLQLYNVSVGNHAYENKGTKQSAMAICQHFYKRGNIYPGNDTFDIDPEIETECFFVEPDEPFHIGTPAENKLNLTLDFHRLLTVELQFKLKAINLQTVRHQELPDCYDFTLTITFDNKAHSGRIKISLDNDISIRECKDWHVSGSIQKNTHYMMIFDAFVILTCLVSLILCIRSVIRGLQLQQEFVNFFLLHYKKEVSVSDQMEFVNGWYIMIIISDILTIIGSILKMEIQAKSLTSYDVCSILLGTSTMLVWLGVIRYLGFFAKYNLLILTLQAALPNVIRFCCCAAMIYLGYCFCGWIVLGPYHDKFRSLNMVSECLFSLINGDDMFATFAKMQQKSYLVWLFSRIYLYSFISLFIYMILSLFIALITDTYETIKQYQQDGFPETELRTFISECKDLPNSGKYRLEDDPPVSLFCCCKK

[2] = biological target: T2, RNA-binding protein pos-1 (Caenorhabditis elegans, UniProt G5EF15); assay: disruptors of C. elegans POS-1 RNA interaction – biochemical, fluorescence polarization, dose response (AID 1964);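 also: purified POS-1 fused to maltose binding protein made in E. coli; potency of compounds blocking POS-1 binding to fluorescent RNA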
T2 sequence (G5EF15 whole entry): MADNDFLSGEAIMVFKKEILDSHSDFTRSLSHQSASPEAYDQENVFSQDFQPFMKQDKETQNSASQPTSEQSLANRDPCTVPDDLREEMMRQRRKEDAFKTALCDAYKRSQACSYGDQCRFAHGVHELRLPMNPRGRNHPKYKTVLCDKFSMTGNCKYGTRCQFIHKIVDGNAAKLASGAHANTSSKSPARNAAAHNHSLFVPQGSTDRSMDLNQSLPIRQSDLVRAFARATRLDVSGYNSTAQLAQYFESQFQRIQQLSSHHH

[3] = biological target: T3, Zinc finger protein mex-5 (Caenorhabditis elegans, UniProt Q9XUB2); assay: potency of MEX-5 RNA-binding blockers – biochemical, C. elegans, fluorescence polarization, dose response (AID 1960)
T3 sequence (Q9XUB2 whole entry): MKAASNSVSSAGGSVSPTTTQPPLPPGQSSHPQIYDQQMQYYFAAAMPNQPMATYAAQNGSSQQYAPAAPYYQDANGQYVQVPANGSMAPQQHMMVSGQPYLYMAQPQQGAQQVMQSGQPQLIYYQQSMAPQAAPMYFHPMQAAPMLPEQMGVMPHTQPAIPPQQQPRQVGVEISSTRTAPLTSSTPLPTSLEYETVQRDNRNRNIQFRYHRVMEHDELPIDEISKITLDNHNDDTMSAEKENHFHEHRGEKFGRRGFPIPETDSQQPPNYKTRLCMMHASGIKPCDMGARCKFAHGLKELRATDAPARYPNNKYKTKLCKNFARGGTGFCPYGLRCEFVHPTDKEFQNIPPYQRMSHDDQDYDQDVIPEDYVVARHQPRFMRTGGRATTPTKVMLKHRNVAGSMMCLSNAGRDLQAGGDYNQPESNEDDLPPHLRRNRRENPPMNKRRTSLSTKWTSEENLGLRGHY

[4] = biological target: T4, Neuropeptide Y receptor type 1 (Homo sapiens, UniProt P25929); type: functional;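 also: HEK293 cells with a CNG channel challenged with NPY then isoproterenol; potency as antagonist that reverses NPY suppression of cAMP signal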
T4 sequence (P25929 whole entry): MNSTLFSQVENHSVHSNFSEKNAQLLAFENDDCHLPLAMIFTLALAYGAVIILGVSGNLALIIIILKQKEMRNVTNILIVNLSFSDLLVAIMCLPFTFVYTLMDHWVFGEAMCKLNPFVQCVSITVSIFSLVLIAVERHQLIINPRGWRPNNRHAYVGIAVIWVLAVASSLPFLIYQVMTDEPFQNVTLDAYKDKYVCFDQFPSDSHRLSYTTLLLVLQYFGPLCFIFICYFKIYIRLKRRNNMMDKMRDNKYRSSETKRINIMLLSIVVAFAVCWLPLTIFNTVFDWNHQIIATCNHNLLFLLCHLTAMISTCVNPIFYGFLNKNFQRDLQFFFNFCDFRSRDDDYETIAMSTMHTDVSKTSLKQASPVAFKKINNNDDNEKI

[5] = biological target: T5, Neuropeptide Y receptor type 2 (Homo sapiens, UniProt P49146); type: functional, cell-based;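 also: HEK293 cells expressing the receptor and a CNG channel; stimulus was NPY near EC95 followed by isoproterenol to raise cAMP; antagonist potency measured as restoring cAMP signal that NPY suppresses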
T5 sequence (P49146 whole entry): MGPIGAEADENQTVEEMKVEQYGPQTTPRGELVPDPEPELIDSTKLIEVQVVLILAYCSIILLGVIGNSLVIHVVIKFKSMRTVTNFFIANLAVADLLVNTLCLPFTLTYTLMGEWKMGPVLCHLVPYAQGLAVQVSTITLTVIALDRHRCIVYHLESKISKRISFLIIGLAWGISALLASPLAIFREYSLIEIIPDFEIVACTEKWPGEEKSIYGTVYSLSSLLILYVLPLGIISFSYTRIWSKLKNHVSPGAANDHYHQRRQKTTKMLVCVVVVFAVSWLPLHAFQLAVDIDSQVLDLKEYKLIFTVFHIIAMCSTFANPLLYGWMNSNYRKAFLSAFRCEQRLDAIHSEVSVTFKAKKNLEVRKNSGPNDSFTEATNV

[6] = biological target: Luciferin 4-monooxygenase (Photinus pyralis, UniProt P08659); assay: Counter Screen for Luciferase-based Assay Positives. [Related pubchem assays: 620, 618, 411 ]
Chain of Luciferin 4-monooxygenase (P08659 whole entry): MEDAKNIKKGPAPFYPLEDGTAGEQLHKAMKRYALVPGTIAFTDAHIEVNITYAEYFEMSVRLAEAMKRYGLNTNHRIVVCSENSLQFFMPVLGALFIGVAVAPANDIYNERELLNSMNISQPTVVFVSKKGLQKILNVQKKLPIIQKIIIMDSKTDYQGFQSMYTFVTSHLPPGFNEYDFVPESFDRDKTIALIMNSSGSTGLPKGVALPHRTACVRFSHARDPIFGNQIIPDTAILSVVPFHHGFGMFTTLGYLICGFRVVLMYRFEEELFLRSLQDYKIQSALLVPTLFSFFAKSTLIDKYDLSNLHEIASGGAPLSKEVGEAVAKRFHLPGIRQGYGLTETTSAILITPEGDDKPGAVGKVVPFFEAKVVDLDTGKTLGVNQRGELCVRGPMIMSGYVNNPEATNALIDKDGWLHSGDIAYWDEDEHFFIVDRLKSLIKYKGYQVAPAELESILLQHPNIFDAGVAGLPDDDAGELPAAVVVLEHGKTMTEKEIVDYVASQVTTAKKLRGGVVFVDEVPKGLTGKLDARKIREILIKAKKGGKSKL

HT-1080 = assay: HT1080 cell viability loss – fluorescence readout (AID 620); type: functional, cell-based; details: Homo sapiens
cells [7] = type: functional, cell-based
cells [8] = type: functional, cell-based; remark: listed apart in the source

Chain of Ion channel NompC (Q7T1G6 whole entry): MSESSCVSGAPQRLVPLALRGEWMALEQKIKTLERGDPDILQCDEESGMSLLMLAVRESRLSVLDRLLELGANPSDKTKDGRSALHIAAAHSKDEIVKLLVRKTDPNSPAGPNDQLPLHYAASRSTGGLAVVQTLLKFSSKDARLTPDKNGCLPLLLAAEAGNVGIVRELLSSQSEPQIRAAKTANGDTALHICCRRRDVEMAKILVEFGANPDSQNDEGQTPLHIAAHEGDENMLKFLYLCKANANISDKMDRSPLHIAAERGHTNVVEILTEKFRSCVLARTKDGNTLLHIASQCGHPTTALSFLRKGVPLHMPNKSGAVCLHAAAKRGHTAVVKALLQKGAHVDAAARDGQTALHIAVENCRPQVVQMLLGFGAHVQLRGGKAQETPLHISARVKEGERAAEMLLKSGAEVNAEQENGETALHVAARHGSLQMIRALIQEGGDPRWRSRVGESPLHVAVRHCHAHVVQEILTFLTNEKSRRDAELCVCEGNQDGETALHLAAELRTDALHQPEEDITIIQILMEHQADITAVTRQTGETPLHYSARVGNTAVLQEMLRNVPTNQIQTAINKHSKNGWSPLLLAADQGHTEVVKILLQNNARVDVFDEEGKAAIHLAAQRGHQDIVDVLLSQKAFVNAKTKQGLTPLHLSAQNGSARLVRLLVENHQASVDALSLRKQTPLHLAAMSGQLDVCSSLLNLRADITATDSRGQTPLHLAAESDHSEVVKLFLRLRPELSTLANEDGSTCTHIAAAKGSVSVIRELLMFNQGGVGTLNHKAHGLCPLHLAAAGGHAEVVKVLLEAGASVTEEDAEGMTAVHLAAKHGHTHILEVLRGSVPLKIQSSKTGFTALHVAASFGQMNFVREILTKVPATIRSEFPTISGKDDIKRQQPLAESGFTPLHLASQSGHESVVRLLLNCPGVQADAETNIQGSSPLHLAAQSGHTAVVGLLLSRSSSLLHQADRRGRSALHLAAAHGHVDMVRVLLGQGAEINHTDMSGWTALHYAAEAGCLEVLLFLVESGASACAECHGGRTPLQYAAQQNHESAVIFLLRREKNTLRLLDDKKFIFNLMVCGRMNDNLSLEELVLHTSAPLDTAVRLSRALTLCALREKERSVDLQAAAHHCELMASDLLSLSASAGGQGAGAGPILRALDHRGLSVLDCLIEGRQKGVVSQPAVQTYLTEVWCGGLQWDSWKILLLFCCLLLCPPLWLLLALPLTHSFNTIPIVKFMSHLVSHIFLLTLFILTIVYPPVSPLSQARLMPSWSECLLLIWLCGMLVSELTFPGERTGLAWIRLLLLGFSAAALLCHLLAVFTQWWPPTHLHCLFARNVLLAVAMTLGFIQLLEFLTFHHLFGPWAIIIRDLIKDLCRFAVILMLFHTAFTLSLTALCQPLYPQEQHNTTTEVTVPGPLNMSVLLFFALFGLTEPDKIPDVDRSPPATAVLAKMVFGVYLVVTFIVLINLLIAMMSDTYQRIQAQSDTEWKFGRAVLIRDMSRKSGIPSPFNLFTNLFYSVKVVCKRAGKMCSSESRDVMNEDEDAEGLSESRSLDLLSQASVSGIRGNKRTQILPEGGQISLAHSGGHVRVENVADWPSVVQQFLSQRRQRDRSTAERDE

| SMILES | EC50 (Ion channel NompC) | EC50 (Mucolipin-3) | IC50 [4] | IC50 [5] | further results |
| --- | --- | --- | --- | --- | --- |
| O=C1C2CC=C(Cl)CC2C(=O)N1CC1Cc2ccccc2CO1 (stereo not given) |  |  | 7.82 µM (active) | 5.72 µM (active) | EC50 [2]: 23 µM (active); EC50 [3]: 22 µM (active) |
| COc1ccc(S(=O)(=O)N2CCN(C(=O)CCC3CCCC3)CC2)cc1 |  |  |  |  | EC50 [6]: 2.3 µM (active); EC50 (HT-1080): > 50 µM (not active) |
| CCCCCCCCCS(=O)(=O)N/N=C/c1cccc([N+](=O)[O-])c1 |  |  | > 35 µM (not active) | > 35 µM (not active) | EC50 (cells [7]): 23.7 µM (active); EC50 (cells [8]): > 350 µM (not active) |

Second part, led by results:

| EC50 (Ion channel NompC) | EC50 (Mucolipin-3) | SMILES | IC50 [4] | IC50 [5] | further results |
| --- | --- | --- | --- | --- | --- |
| 9.35 µM (active) | 17.3 µM (not active) | COc1ccc(C(=O)CSc2nnn(-c3cccc(NC(C)=O)c3)n2)cc1 |  |  | EC50 [1]: 4.96 µM (active) |
| > 29.9 µM (not active) | 3.96 µM (active) | CC(C)[C@H](NS(=O)(=O)c1ccccc1)C(=O)OCC(=O)Nc1ccccc1Sc1ccccc1 |  |  |  |
